Source: article PMC10818312, “Ocular and Plasma Pharmacokinetics of Enavogliflozin Ophthalmic Solution in Preclinical Species” (Pharmaceuticals, 2024)
pIC50: −log10 of the molar value.

Legend:
[1] = test system: hERG; parameters: method as in earlier work; conditions: ref Daewoong Therapeutics, DWRX2008-IB-01 Investigator’s brochure, data on file; cited from earlier work
[2] = Plasma PK after single ocular administration in beagle dogs; type: in vivo; conditions: male, Ridglan beagle, topical or ocular, 100 ug, beagle dog plasma, single ocular 100 μg
Protocol: (§1) We used 7-week-old male Brown Norway rats (Central Lab. Animal Inc., Seoul, Republic of Korea) weighing 140–180 g. The rats were acclimated for a minimum of 7 days. For the evaluation of plasma PKs after ocular administration, a single dose of 5 μL of DWRX2008 0.5% (25 μg of enavogliflozin) was topically applied on the left eye. One-year-old male Ridglan beagle dogs (JOHN Bio Co., Nantong, China) weightng 8–10 kg were chosen. The beagle dogs experienced a withdrawal period of over one month. For the evaluation of plasma PKs after ocular administration, a single dose of 20 μL of DWRX2008 0.5% (100 μg of enavogliflozin) was ocularly administered on the left eyes. In rats and beagle dogs, DWRX2008 was administered to the left eye for evaluation of safety and systemic absorption. Male New Zealand White rabbits (Samtako Biokorea, Osan, Republic of Korea) weighing 2.0–2.5 kg were used in PK studies after eye drop instillations. The rabbits were acclimated for 7 days. […]
(§2) A total of three rats were sampled 10 times at 0 (pre-dose), 0.08, 0.25, 0.5, 1, 2, 4, 8, 12 and 24 h post-dose. […] After centrifugation at 14,000 rpm for 5 min, 3 μL of sample was analyzed by LC-MS [24]. […] Finally, 3 μL of sample was analyzed by LC-MS [24]. […] Finally, 3 μL of sample was analyzed by LC-MS [24]. […]

[3] = Plasma PK after single ocular administration in rabbits; type: in vivo; conditions: male, New Zealand White, topical or ocular, 400 ug, rabbit plasma, single ocular 400 μg (both eye)
Protocol: as §1, §2

[4] = Retina/plasma drug concentration ratio in rats; type: in vivo; conditions: mean (range)
[5] = male, New Zealand White, rabbit, in vivo
Protocol: (§3) We used 9-month-old male rabbits (Envigo, Denver, PA, USA) weighing 3.1–3.7 kg in the PK studies involving a single topical ocular administration of [^14C] enavogliflozin.
(§4) The appropriate quantity of radiolabeled and non-radiolabeled test formulation (if required) was combined with the vehicle to meet the dose level (~77 μCi/eye). […] A single volumetric dose of 30 μL was administered to each eye (600 μg/eye, 1200 μg/head).
(§5) Two animals were euthanized by Euthasol® administration into the marginal ear vein at each predetermined time point (0.5, 1, 2, 4, 8, 24, and 48 h) post-instillation. Subsequently, their heads were frozen in a hexane/dry-ice bath and embedded in a 5% carboxymethylcellulose matrix. The embedded heads were sectioned at 30 μm thickness with less than 20% variation.
(§6) The primary PK parameters for concentrations of enavogliflozin were explored using a noncompartmental method of Phoenix WinNonlin 8.3 (Certara, L.P., Princeton, NJ, USA). The Cmax and Tmax were directly accepted from observed data. The AUC0–t was calculated using the linear trapezoidal method based on the mean radioactivity concentration of both eyes for ocular PKs in rabbits and the linear-up/log-down trapezoidal method for plasma PKs in rats, beagle dogs, and rabbits.

[6] = Plasma and retinal concentration after single oral administration in rabbits; type: in vivo, male New Zealand White rabbits
[7] = Melanin binding capability; type: in vitro ADME
[8] = no reference given; cited from earlier work
[9] = Plasma PK after single ocular administration in rats; type: in vivo; conditions: male, Brown Norway, topical or ocular, 25 ug, rat plasma, single ocular 25 μg
Protocol: as §1, §2

[10] = test system: hSGLT2; conditions: no reference given; read-out: IC50 against hSGLT2; cited from earlier work
[11] = Ocular distribution and blood exposure of radioactivity by autoradiography after single ocular [14C] enavogliflozin (terminal sampling); conditions: single ocular 600 μg/eye, rabbits
Protocol: as §3, §4, §5, §6

[12] = left eye, median [min, max], n = 3

Row | Tmax [2, 12] | half-life ([2]; mean ± SD (% CV)) | half-life ([3]; mean ± SD (% CV)) | Tmax ([3]; median [min, max], n = 6) | mean retina/plasma (R/P) drug concentration ratio ([4]; 1 h after administration) | mean retina/plasma (R/P) drug concentration ratio ([4]; 3 h after administration) | mean retina/plasma (R/P) drug concentration ratio ([4]; 6 h after administration) | time until which retinal concentration remained above the IC50 of SGLT2 [5] | Tmax ([6]; male, New Zealand White, 400 ug, rabbit plasma, single oral 400 μg, median [min, max], n = 6) | retinal enavogliflozin concentration ([6]; rabbits, oral administration, same dose (400 μg)) | melanin binding capability [7] | Tmax [9, 12] | half-life ([9]; mean ± SD (% CV)) | Molecule | pIC50 [1] | partition coefficient [Log P] [8] | pIC50 [10] | AUC0–t in whole blood as % of corresponding value in the plasma ([11]; radioactivity) | Cmax in whole blood as % of corresponding value in the plasma ([11]; radioactivity) | Radioactivity in the optic nerve [11]
1 | 1 h | 10.6 h | 3.6 h | 0.5 h | 3.3 (range: 0.6–6.6) | 1.3 (range: 0.2–2.2) | 2.6 (range: 1.4–3.3) | 24 h | 0.8 h | below the lower limit of quantification | approximately 33% | 4 h | 5.4 h | OC[C@H]1O[C@@H](c2cc(Cc3ccc(C4CC4)cc3)c(Cl)c3c2CCO3)[C@H](O)[C@@H](O)[C@@H]1O [enavogliflozin] | 4.35 | 2.13 | 9.37 | – | – | –
2 | – | – | – | – | – | – | – | – | – | – | – | – | – | [^14C] enavogliflozin | – | – | – | 64.0% | 73.4% | barely detectable
